This is an account of results in US9944646B2, “Bicyclic azaheterocyclobenzylamines as PI3K inhibitors” (Incyte Corporation, priority 2012, dated 2018).

In one test the test system is SUDHL-6 cells. Description: SUDHL-6 Cell Proliferation Assay (Example B3). Format: cell-based. The settings on record: 3 days, Cell Titer-GLO. As to the method: Example B3: SUDHL-6 Cell Proliferation Assay
SUDHL-6 cell line (diffuse large B cell lymphoma) was purchased from ATCC (Manassas, Va.) and maintained in the culture medium recommended (RPMI and 10% FBS). To measure the anti-proliferation activity of the compounds through ATP quantitation, the SUDHL-6 cells was plated with the culture medium (5000 cells/well/per 200 μl) into 96-well polystyrene clear black tissue culture plate (Greiner-bio-one through VWR, NJ) in the presence or absence of a concentration range of test compounds. After 3 days, Cell Titer-GLO Luminescent (Promega, Madison, Wis.) cell culture agent was added to each well for 10 minutes at room temperature to stabilize the luminescent signal. This determines the number of viable cells in culture based on quantitation of the ATP present, which signals the presence of metabolically active cells. Luminescence was measured with the TopCount 384 (Packard Bioscience through Perkin Elmer, Boston, Mass.). […] IC50 data for the Examples is presented in Table 4 determined by the assay of Example B3.

The next test concerns the target PI3Kδ (Homo sapiens (Human), UniProt O00329). Description: PI3K Enzyme Assay (Example A2), [γ-33P]ATP filter plate. Format: biochemical. Summed up: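 Recombinant PI3Kδ at 2.9 nM with 50 µM PIP2 in MOPS pH 6.7, MgCl2, DTT, CHAPS, 0.5% DMSO; started with 1000 μM ATP including [γ-33P]ATP, 180 min at room temperature. Phosphorylated product captured on PVDF filter plates and scintillation-counted; IC50 from percent-control activity vs log concentration.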

By IC50 is commonly meant the point on the concentration scale where inhibition reaches its midpoint.

Chain of PI3Kδ (O00329 whole entry): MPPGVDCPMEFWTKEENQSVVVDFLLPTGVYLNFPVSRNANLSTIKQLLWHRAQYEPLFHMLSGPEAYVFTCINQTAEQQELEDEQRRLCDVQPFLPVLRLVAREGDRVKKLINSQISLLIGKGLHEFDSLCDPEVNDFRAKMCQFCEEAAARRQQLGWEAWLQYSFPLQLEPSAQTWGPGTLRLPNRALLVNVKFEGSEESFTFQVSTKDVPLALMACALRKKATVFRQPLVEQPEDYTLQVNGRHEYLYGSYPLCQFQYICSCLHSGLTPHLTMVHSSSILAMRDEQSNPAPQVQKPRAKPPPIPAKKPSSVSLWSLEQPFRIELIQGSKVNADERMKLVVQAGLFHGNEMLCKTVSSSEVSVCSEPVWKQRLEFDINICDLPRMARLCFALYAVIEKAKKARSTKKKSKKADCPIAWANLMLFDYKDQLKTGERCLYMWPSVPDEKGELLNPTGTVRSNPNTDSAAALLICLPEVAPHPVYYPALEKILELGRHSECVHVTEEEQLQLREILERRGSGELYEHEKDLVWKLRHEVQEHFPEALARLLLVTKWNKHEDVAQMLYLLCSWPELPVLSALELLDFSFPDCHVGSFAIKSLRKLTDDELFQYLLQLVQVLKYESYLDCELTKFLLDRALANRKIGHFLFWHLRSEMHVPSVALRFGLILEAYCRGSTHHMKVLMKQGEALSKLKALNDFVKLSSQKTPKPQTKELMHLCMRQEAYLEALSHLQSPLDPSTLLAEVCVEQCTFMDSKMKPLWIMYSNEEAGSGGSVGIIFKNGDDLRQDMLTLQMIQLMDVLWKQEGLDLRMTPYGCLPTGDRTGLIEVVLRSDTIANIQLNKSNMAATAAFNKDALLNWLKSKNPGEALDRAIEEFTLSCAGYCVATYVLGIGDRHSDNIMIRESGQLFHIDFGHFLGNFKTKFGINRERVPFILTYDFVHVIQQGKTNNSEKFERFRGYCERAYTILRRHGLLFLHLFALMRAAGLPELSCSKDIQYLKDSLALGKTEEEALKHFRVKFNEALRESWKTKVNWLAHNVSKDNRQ
Chain of PI3Kδ (P27986 whole entry partner): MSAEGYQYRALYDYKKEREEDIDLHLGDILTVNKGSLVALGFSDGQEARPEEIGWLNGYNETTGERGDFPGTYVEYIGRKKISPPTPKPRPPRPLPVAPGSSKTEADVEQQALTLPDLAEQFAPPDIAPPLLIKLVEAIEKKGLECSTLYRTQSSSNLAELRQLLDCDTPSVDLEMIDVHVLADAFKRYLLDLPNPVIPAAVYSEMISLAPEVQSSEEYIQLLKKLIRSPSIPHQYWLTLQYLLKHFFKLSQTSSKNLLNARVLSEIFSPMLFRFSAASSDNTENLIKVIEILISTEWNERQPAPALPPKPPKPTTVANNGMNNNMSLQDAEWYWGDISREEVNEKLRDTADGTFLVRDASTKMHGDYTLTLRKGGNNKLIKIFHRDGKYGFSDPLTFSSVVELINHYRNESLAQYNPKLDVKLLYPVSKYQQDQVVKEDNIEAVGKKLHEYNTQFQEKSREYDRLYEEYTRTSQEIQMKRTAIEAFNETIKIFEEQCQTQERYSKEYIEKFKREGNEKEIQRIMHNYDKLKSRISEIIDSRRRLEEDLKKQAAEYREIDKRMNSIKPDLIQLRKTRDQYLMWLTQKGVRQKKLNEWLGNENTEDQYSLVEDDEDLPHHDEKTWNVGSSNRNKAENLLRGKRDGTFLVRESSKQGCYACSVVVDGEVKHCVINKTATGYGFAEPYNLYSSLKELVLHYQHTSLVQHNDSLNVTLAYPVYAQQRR

On to `CC(=O)N1CC(N2Cc3c(F)c(Cl)cc(C(C)n4nc(C)c5c(N)ncnc54)c3OC(C)C2)C1` (single isomer, unassigned) [Example 29, 1-{1-[4-(1-Acetylazetidin-3-yl)-7-chloro-6-fluoro-2-methyl-2,3,4,5-tetrahydro-1,4-benzoxazepin-9-yl]ethyl}-3-methyl-1H-pyrazolo[3,4-d]pyrimidin-4-amine], for which the figures for the IC50 with SUDHL-6 cells and at PI3Kδ were at most 500 nM and at most 100 nM, respectively.
In the case of `CC(=O)N1CC(N2Cc3c(F)c(Cl)cc(C(C)n4nc(C)c5c(N)ncnc54)c3OC(C)C2)C1` (single isomer, unassigned) [Example 30, 1-{1-[4-(1-Acetylazetidin-3-yl)-7-chloro-6-fluoro-2-methyl-2,3,4,5-tetrahydro-1,4-benzoxazepin-9-yl]ethyl}-3-methyl-1H-pyrazolo[3,4-d]pyrimidin-4-amine], the IC50 was at most 500 nM with SUDHL-6 cells and at most 100 nM against PI3Kδ.
With `Cc1nn(C(C)c2cc(Cl)c(F)c3c2OC(C)CN(S(C)(=O)=O)C3)c2ncnc(N)c12` (single isomer, unassigned) [Example 40, 1-{1-[7-Chloro-6-fluoro-2-methyl-4-(methylsulfonyl)-2,3,4,5-tetrahydro-1,4-benzoxazepin-9-yl]ethyl}-3-methyl-1H-pyrazolo[3,4-d]pyrimidin-4-amine], the IC50 is at most 500 nM in the test on SUDHL-6 cells and at most 100 nM on PI3Kδ.
As for `Cc1nn(C(C)c2cc(Cl)c(C#N)c3c2OC(C)CN(CCO)C3)c2ncnc(N)c12` (single isomer, unassigned) [Example 63, 9-[1-(4-Amino-3-methyl-1H-pyrazolo[3,4-d]pyrimidin-1-yl)ethyl]-7-chloro-4-(2-hydroxyethyl)-2-methyl-2,3,4,5-tetrahydro-1,4-benzoxazepine-6-carbonitrile], the IC50 with SUDHL-6 cells is at most 500 nM; against PI3Kδ, at most 100 nM.
